Among the test systems are ACHN renal; HCT-116 colon; MCF7 breast; NCI-H226 lung; NCI-H522 lung; RPMI-8226 leukemia; U251 CNS; UO-31 renal; MDA-N; OVCAR-4 ovarian; SK-MEL-2 melanoma.
Common to all, as to experiment: NCI anticancer screen, dose series, 48 h

Where “and” joins values, the source holds several entries; their conditions need not be identical. Identical values can stand only once.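 These data come from cells grown in 96-well plates and exposed to compound for 48 hours at five concentrations. The concentration for 50% growth inhibition is given as GI50. TGI is the concentration that stops growth completely.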 Some results are limits rather than exact numbers.

As to `CCOC(=O)C1CCC(=O)N1C(=O)c1ccccc1` (configuration not stated), the TGI with ACHN renal, in the test on HCT-116 colon, with MCF7 breast, in the test on NCI-H226 lung, in the test on NCI-H522 lung and with RPMI-8226 leukemia was > 100 µM each time. Further, the TGI in the test on U251 CNS and in the test on UO-31 renal was > 100 µM each time.
As for `CCCCn1c(-c2ccc([N+](=O)[O-])cc2)cs/c1=N/N=C1\C(=O)Nc2ccc(Br)cc21`, the TGI turned out to be 31.5 µM in the test with ACHN renal; 29.3 µM in the test with HCT-116 colon; 17.7 µM with MCF7 breast; 45.2 µM in the test with MDA-N; 38.3 µM with NCI-H226 lung; 36.7 µM with NCI-H522 lung. Further, the TGI in the test on OVCAR-4 ovarian was found to be 31.8 µM; with U251 CNS, 22.9 µM; in the test on UO-31 renal, 34.2 µM.
With `NS(=O)(=O)c1cccc(NC(=S)NC(=O)Nc2ccc(Cl)c(Cl)c2)c1`, the TGI with ACHN renal amounted to 48.7 µM; in the test with HCT-116 colon, 31.4 µM; in the test on MCF7 breast, 37.1 µM; in the test on MDA-N, 38.2 µM; in the test on NCI-H522 lung, 28.6 µM; in the test on OVCAR-4 ovarian, 76.9 µM. In addition, the TGI in the test with RPMI-8226 leukemia is 41.7 µM; in the test with SK-MEL-2 melanoma it was 40.2 µM; in the test with U251 CNS, 39.6 µM; in the test on UO-31 renal it was 37.8 µM.
Consider `CCOC(=O)c1nnsc1NN`, for which the TGI with ACHN renal, in the test on HCT-116 colon, in the test on MCF7 breast, in the test on MDA-N, in the test with NCI-H226 lung and in the test with NCI-H522 lung was > 100 µM throughout. In addition, the TGI with OVCAR-4 ovarian, in the test with SK-MEL-2 melanoma, in the test on U251 CNS and with UO-31 renal was > 100 µM in each case.
Turning to `CCOC(=O)c1nc2cc(C(F)(F)F)ccc2nc1Nc1ccc(C(=O)NC(C(=O)OCC)C(=O)OCC)cc1`, the TGI in the test with ACHN renal is 63.1 µM; in the test on HCT-116 colon, 37.4 µM; in the test on MCF7 breast, 57.2 µM; with NCI-H226 lung, 34.8 µM; in the test on NCI-H522 lung it was 40.3 µM; in the test on OVCAR-4 ovarian, 33.1 µM. Also, the TGI in the test on RPMI-8226 leukemia is 65.8 µM; with SK-MEL-2 melanoma, > 100 µM; in the test with U251 CNS it was 32 µM; with UO-31 renal, 91.9 µM.
As to `CO[C@]12C[C@H](CNC(=O)c3ccc[nH]3)O[C@H]1NC(=O)N2`, the TGI with ACHN renal, with HCT-116 colon, in the test on MCF7 breast, with NCI-H226 lung, with NCI-H522 lung and in the test with RPMI-8226 leukemia was > 100 µM each time. For the same compound, the TGI in the test with SK-MEL-2 melanoma, in the test on U251 CNS and in the test on UO-31 renal was > 100 µM each time.
As for `CCCSc1nc(-c2ccc(OC)cc2)c(C#N)c(=O)n1C1OC(COC(C)=O)C(OC(C)=O)C(OC(C)=O)C1OC(C)=O` (configuration not stated), the TGI with ACHN renal, in the test with HCT-116 colon, in the test on NCI-H522 lung, with OVCAR-4 ovarian, in the test on RPMI-8226 leukemia and in the test on SK-MEL-2 melanoma was > 100 µM each time. Further, the TGI with U251 CNS was > 100 µM and 34.2 µM; in the test with UO-31 renal it was > 100 µM. For the same compound, the GI50 in the test on HCT-116 colon was > 100 µM; in the test with U251 CNS, > 100 µM and 17.9 µM; with UO-31 renal it was > 100 µM and 36.9 µM.
`CCC(C(=O)C(=O)OC)P1(=O)OC(C)(C)CN1C(C)(C)C` (configuration not stated): the TGI in the test on ACHN renal, in the test on HCT-116 colon, in the test with MCF7 breast, in the test with NCI-H226 lung, in the test with OVCAR-4 ovarian and with RPMI-8226 leukemia was > 100 µM each time. Also, the TGI with SK-MEL-2 melanoma, with U251 CNS and with UO-31 renal was > 100 µM in each case.
Turning to `Cc1cnc2c(c1)C(=O)C1=C(C2=O)C2OC(=O)CC2OC1(C)C` (configuration not stated), the TGI in the test on ACHN renal worked out at 0.39 µM; in the test on HCT-116 colon it was 0.399 µM; in the test on MCF7 breast, 0.363 µM; with MDA-N, 0.865 µM; in the test with NCI-H226 lung, 2.31 µM; with NCI-H522 lung it was 0.148 µM. Besides, the TGI in the test with OVCAR-4 ovarian came out at 0.359 µM; in the test with SK-MEL-2 melanoma it was 2.76 µM; in the test on U251 CNS it was 0.519 µM; with UO-31 renal, 1.26 µM.
Consider `COc1cc2c(c(O)c1OC)C(=O)C(Cc1ccc(O)cc1)CO2` (configuration not stated), for which the TGI with ACHN renal was > 100 µM; in the test on HCT-116 colon, > 100 µM; in the test on MCF7 breast, 8.65 µM; with NCI-H226 lung it was > 100 µM; in the test on NCI-H522 lung, 15.3 µM; in the test with OVCAR-4 ovarian, > 100 µM. Moreover, the TGI with RPMI-8226 leukemia is 60.3 µM; in the test with SK-MEL-2 melanoma it was > 100 µM; in the test on U251 CNS, > 100 µM; in the test on UO-31 renal it was > 100 µM.
For `Cc1ccc(C2=CC(=O)/C(=C\C(=O)c3ccc(Cl)cc3)O2)cc1`, the TGI in the test on ACHN renal amounted to 17.3 µM; in the test on HCT-116 colon, 27.8 µM; in the test on MCF7 breast, 25.6 µM; in the test on MDA-N, 16.2 µM; in the test with NCI-H226 lung it was 40 µM; in the test with NCI-H522 lung it was 4.99 µM. In addition, the TGI in the test on OVCAR-4 ovarian stood at 33.5 µM; with RPMI-8226 leukemia, 6.31 µM; with U251 CNS, 32 µM; with UO-31 renal, 21.4 µM.
On to `c1c2c(cc(-n3nnc4c3CCCCCC4)c1-n1nnc3c1CCCCCC3)CCCCCC2`, for which the TGI in the test on ACHN renal came to 20.9 µM; with HCT-116 colon, 21.6 µM; in the test on NCI-H226 lung, 41.6 µM; in the test with NCI-H522 lung it was 1.85 µM; with SK-MEL-2 melanoma, 34.6 µM; with U251 CNS, 22.4 µM. The compound further registered a TGI in the test with UO-31 renal of 18.9 µM.
`COc1nc(C#CC(C)(C)C)nc(OC)n1`: the TGI was > 100 µM in the test on ACHN renal; > 100 µM with HCT-116 colon; 89.5 µM in the test with MCF7 breast; > 100 µM in the test with MDA-N; 49.3 µM in the test with NCI-H522 lung; 35.5 µM in the test on OVCAR-4 ovarian. Moreover, the TGI in the test with SK-MEL-2 melanoma, in the test with U251 CNS and with UO-31 renal was > 100 µM each time.
As to `COc1ccc(NC(=S)NC(=O)c2ccc3c(c2)Sc2ccccc2O3)c([N+](=O)[O-])c1`, the TGI in the test with ACHN renal was 64.8 µM; in the test on HCT-116 colon, > 100 µM; with MCF7 breast, > 100 µM; with MDA-N, > 100 µM; in the test on NCI-H226 lung, > 100 µM; in the test on NCI-H522 lung, 35.3 µM. The TGI with OVCAR-4 ovarian was 91 µM; in the test on SK-MEL-2 melanoma, 96.2 µM; in the test with U251 CNS it was 60.6 µM; with UO-31 renal, 57.4 µM.

The values above are taken from PubChem BioAssay (NCI).
